Assay results reported in ChEMBL document CHEMBL1201862, “PubChem BioAssay data set” (2004).
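Dose response: 5 concentrations. Exposure: 48 h. Format: 96-well plates. Endpoint: linear interpolation; highest concentration if not reached. GI50 marks 50% less growth.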 Active and inactive are the calls of the source. No stated cut-off is given here; in the data, active = GI50 up to about 1.1 µM and inactive = higher. Positions of bridges follow the written chain, without caps; N, C: chain ends. Residues, ends and D or L forms follow the SMILES beside them. Peptide text beside a SMILES is read from it.

Assays:
Test in all cases: inhibition of tumour cell growth, NCI panel, 48 h
[1] = test system: SW-620
[2] = test system: BT-549
[3] = test system: NCI-H460
[4] = test system: OVCAR-5
[5] = test system: SK-OV-3
[6] = test system: TK-10
[7] = test system: SNB-75
[8] = test system: RXF 393
[9] = test system: UACC-257
[10] = test system: UO-31
[11] = test system: HCC 2998
[12] = test system: KM12
[13] = test system: A498
[14] = test system: U-251
[15] = test system: M14
[16] = test system: 786-0
[17] = test system: Hs-578T
[18] = test system: NCI-H522
[19] = test system: K562
[20] = test system: HT-29

Row | Structure (SMILES) | GI50 [1] | GI50 [2] | GI50 [3] | GI50 [4] | GI50 [5] | GI50 [6] | GI50 [7] | GI50 [8] | GI50 [9] | GI50 [10] | GI50 [11] | GI50 [12] | GI50 [13] | GI50 [14] | GI50 [15] | GI50 [16] | GI50 [17] | GI50 [18] | GI50 [19] | GI50 [20]
1 | C[C@H]1C(=O)O[C@@H]1[C@H]1COC(C)(C)O1 | > 100 µM (inactive) | > 100 µM (inactive) | > 100 µM (inactive) | > 100 µM (inactive) | > 100 µM (inactive) | > 100 µM (inactive) | 82 µM (inactive) | > 100 µM (inactive) | > 100 µM (inactive) | > 100 µM (inactive) | > 100 µM (inactive) | > 100 µM (inactive) | > 100 µM (inactive) | > 100 µM (inactive) | > 100 µM (inactive) |  |  |  |  | 
2 | Cc1ccc(/N=N/c2c(O)c(C(=O)O)cc3ccccc23)cc1C | > 100 µM (inactive) | > 100 µM (inactive) | > 100 µM (inactive) | > 100 µM (inactive) | > 100 µM (inactive) | > 100 µM (inactive) | > 100 µM (inactive) | > 100 µM (inactive) | > 100 µM (inactive) | > 100 µM (inactive) | > 100 µM (inactive) | > 100 µM (inactive) |  | 80.7 µM (inactive) | > 100 µM (inactive) | > 100 µM (inactive) | 42.3 µM (inactive) | > 100 µM (inactive) | 82.6 µM (inactive) | > 100 µM (inactive)
3 | O=C(COc1ccc(OCC(=O)N2C(=O)CS/C2=N\c2ccccc2)cc1)N1C(=O)CS/C1=N\c1ccccc1 | 47.9 µM (inactive) | 18 µM (inactive) | 29 µM (inactive) | 12.7 µM (inactive) | 48.5 µM (inactive) | 56.9 µM (inactive) | 90.4 µM (inactive) | 30.3 µM (inactive) | 23.7 µM (inactive) | 25.2 µM (inactive) | 14.9 µM (inactive) | 15.3 µM (inactive) | 60 µM (inactive) | 31.8 µM (inactive) | 18.6 µM (inactive) | 19.2 µM (inactive) |  | 11.1 µM (inactive) | 5.9 µM (inactive) | 14.4 µM (inactive)
4 | O=P1(NCCCl)OCCC(OO)N1CCCl (stereo unspecified) | 15.7 µM (inactive) | 39.5 µM (inactive) | 37.8 µM (inactive) | 42.9 µM (inactive) | > 94 µM (inactive) | 20 µM (inactive) | 32.7 µM (inactive) | 17.8 µM (inactive) | 32.1 µM (inactive) | > 64.3 µM (inactive) | > 100 µM (inactive) | > 100 µM (inactive) |  | 32.4 µM (inactive) | 21.9 µM (inactive) | 26.1 µM (inactive) | 50.4 µM (inactive) | 11.5 µM (inactive) | 19.4 µM (inactive) | 36.6 µM (inactive)
5 | CSC(SC)=C1Sc2cccc(Cl)c2S1 | 39 µM (inactive) |  | > 100 µM (inactive) | 45.6 µM (inactive) | 98.4 µM (inactive) | 76 µM (inactive) | 65.6 µM (inactive) | 43.7 µM (inactive) | > 100 µM (inactive) | 52.5 µM (inactive) | 15.8 µM (inactive) | 83 µM (inactive) | 76.4 µM (inactive) | 65.2 µM (inactive) | 82 µM (inactive) | 28.5 µM (inactive) |  | 26.1 µM (inactive) | 23.9 µM (inactive) | 29 µM (inactive)
6 | COc1cccc(/C=C2\S/C(=N/Nc3nc(C)c(C)s3)NC2=O)c1O | > 100 µM (inactive) | > 100 µM (inactive) | > 100 µM (inactive) | > 100 µM (inactive) | > 100 µM (inactive) | > 100 µM (inactive) | > 100 µM (inactive) | 79.4 µM (inactive) | > 100 µM (inactive) | 74.1 µM (inactive) | 61.5 µM (inactive) | > 100 µM (inactive) | > 100 µM (inactive) | > 100 µM (inactive) | > 100 µM (inactive) | > 100 µM (inactive) |  |  |  | > 100 µM (inactive)
7 | CCOC(=S)SSSC(=S)OCC | 32.5 µM (inactive) |  | 30.7 µM (inactive) | 28.6 µM (inactive) | > 100 µM (inactive) | > 100 µM (inactive) | 28.2 µM (inactive) | 47.9 µM (inactive) | 50.5 µM (inactive) |  | 68.4 µM (inactive) | 41.4 µM (inactive) | > 100 µM (inactive) | 31.6 µM (inactive) | 27 µM (inactive) | 15.2 µM (inactive) | > 100 µM (inactive) |  | 26.3 µM (inactive) | 54.3 µM (inactive)
8 | Nc1cc(N2CCOCC2)nc(=O)n1-c1ccccc1 | > 100 µM (inactive) | > 100 µM (inactive) | > 100 µM (inactive) | > 100 µM (inactive) | > 100 µM (inactive) |  | > 100 µM (inactive) |  | > 100 µM (inactive) | > 100 µM (inactive) | > 100 µM (inactive) | > 100 µM (inactive) | > 100 µM (inactive) | > 100 µM (inactive) | > 100 µM (inactive) | > 100 µM (inactive) |  |  | > 100 µM (inactive) | > 100 µM (inactive)
9 | CN(C)C=[N+]=[N-] | > 100 µM (inactive) |  | > 100 µM (inactive) | > 100 µM (inactive) | > 100 µM (inactive) | > 100 µM (inactive) | > 100 µM (inactive) | > 100 µM (inactive) | > 100 µM (inactive) | > 100 µM (inactive) | > 100 µM (inactive) | > 100 µM (inactive) | > 100 µM (inactive) | > 100 µM (inactive) | > 100 µM (inactive) | > 100 µM (inactive) |  | 0.17 µM (active) | > 100 µM (inactive) | > 100 µM (inactive)
10 | Cc1nn(C(=O)Cc2ccccc2)c2c1C(c1ccc(Cl)cc1)SC(=N)N2 (stereo unspecified) | > 100 µM (inactive) | > 100 µM (inactive) | > 100 µM (inactive) |  | > 100 µM (inactive) | > 100 µM (inactive) | 17.2 µM (inactive) |  | > 100 µM (inactive) |  | > 100 µM (inactive) | > 100 µM (inactive) | > 100 µM (inactive) |  | > 100 µM (inactive) | > 100 µM (inactive) | > 100 µM (inactive) | > 100 µM (inactive) | > 100 µM (inactive) | > 100 µM (inactive)
11 | O=C(CNc1ccccc1C(=O)O)Nn1cnc2ccc(S(=O)(=O)Nc3ccccc3C(=O)O)cc2c1=O | > 100 µM (inactive) | > 100 µM (inactive) | > 100 µM (inactive) | > 100 µM (inactive) | > 100 µM (inactive) | > 100 µM (inactive) | > 100 µM (inactive) |  | > 100 µM (inactive) | > 100 µM (inactive) | > 100 µM (inactive) | > 100 µM (inactive) |  | > 100 µM (inactive) | > 100 µM (inactive) | > 100 µM (inactive) | > 100 µM (inactive) | > 100 µM (inactive) | > 100 µM (inactive) | > 100 µM (inactive)
12 | O=C1CCCCC/C1=C\c1ccc(Cl)cc1 | 24.7 µM (inactive) | 31.2 µM (inactive) | 35.2 µM (inactive) | 78.9 µM (inactive) | 60 µM (inactive) | 28.1 µM (inactive) | 17 µM (inactive) |  | 32.4 µM (inactive) | 27.2 µM (inactive) | 26.2 µM (inactive) | 17.7 µM (inactive) | 33 µM (inactive) | 30 µM (inactive) | 34.4 µM (inactive) | 32.4 µM (inactive) | 20.8 µM (inactive) | 25.4 µM (inactive) |  | 21.8 µM (inactive)
13 | COC(=O)C1CCC(=O)NCCCCC(NC(=O)C(N)CC(=O)O)C(=O)N1 (stereo not drawn) (H-Asp-Lys-Glu-OMe; lactam 2-3; configuration not given here) | > 100 µM (inactive) | > 100 µM (inactive) | 9.68 µM (inactive) | > 100 µM (inactive) | > 100 µM (inactive) | > 100 µM (inactive) | 88.7 µM (inactive) | > 100 µM (inactive) | > 100 µM (inactive) | > 100 µM (inactive) | > 100 µM (inactive) | > 100 µM (inactive) |  | > 100 µM (inactive) | > 100 µM (inactive) | 71.9 µM (inactive) | > 100 µM (inactive) | > 100 µM (inactive) | > 100 µM (inactive) | > 100 µM (inactive)
14 | CCC(C)C(NC(=O)C(NC(=O)C(CC(N)=O)NC(=O)CN)C(C)O)C(=O)NC(C(=O)NC(C)C(=O)NC(C(=O)NC(CCC(=O)O)C(=O)NC(CC(C)C)C(=O)NC(CC(=O)O)C(=O)NC(C(=O)NC(Cc1ccc(O)cc1)C(=O)N1CCCC1C(=O)O)C(C)O)C(C)C)C(C)C (stereo unspecified) (H-GNTIVAVELDTYP-OH; configuration not given here) | > 50 µM (inactive) | > 50 µM (inactive) | > 50 µM (inactive) | > 50 µM (inactive) | > 50 µM (inactive) | > 50 µM (inactive) | > 50 µM (inactive) | > 50 µM (inactive) | > 50 µM (inactive) | > 50 µM (inactive) | > 50 µM (inactive) | > 50 µM (inactive) |  | > 50 µM (inactive) | > 50 µM (inactive) | > 50 µM (inactive) | > 50 µM (inactive) | > 50 µM (inactive) | > 50 µM (inactive) | > 50 µM (inactive)
15 | O=C1C=CC(=C(c2ccc(O)cc2)c2ccc(O)cc2)C=C1 [AURIN] | 12.5 µM (inactive) |  | 15.8 µM (inactive) | 18.2 µM (inactive) | 17.9 µM (inactive) | 19 µM (inactive) | 3.21 µM (inactive) | 5.07 µM (inactive) | 9.68 µM (inactive) | 17 µM (inactive) | 14.4 µM (inactive) | 12.8 µM (inactive) | 17.7 µM (inactive) | 5.82 µM (inactive) | 13.3 µM (inactive) | 13.6 µM (inactive) |  | 10.1 µM (inactive) | 2.94 µM (inactive) | 18.6 µM (inactive)
